Structures can show the parent of a compound that is named as a salt. Where two headings read alike, the source gives them in different places.

Assay [1] addresses T1, L-type calcium channel (Rattus norvegicus, UniProt P22002).
T1 construct: membrane fragments of rat cardiac muscle; from tissue; host or cells: rat cardiac muscle membranes
Description: Competition binding of [3H]nitrendipine to membrane fragments of rat cardiac muscle.

For assay [2], the target named is T2, α2C receptor (Homo sapiens, UniProt P18825).
T2 construct: host or cells: LM(tk-) cells, line L-α2C
T2 sequence (P18825 1-462): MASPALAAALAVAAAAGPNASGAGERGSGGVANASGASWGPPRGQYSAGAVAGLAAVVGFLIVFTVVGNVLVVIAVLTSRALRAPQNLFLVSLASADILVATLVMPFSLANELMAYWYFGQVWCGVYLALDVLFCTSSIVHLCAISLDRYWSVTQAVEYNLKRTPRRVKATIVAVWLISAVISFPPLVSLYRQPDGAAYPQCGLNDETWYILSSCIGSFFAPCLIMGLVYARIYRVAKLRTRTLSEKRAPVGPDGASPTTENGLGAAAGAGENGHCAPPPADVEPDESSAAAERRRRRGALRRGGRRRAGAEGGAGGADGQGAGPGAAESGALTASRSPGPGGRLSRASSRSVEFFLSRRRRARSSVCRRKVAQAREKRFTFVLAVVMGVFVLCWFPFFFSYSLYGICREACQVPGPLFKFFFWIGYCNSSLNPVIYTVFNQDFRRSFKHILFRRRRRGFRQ
Description: Competition binding, [3H]rauwolscine, human α2C receptor. Put shortly: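 Cell lysates from stably transfected LM(tk−) lines are resuspended in 25 mM glycylglycine (pH 7.6 at room temperature), incubated to equilibrium with 0.5 nM [3H]rauwolscine plus competitor, then filtered through GF/B filters; 10 μM phentolamine defines nonspecific binding.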

The target in assay [3] is T3, α1A Human Adrenergic Receptor (Homo sapiens, UniProt P25100).
T3 construct: The entire coding region of α1A (1719 bp); expressed in transfected cells
T3 sequence (P25100 1-572): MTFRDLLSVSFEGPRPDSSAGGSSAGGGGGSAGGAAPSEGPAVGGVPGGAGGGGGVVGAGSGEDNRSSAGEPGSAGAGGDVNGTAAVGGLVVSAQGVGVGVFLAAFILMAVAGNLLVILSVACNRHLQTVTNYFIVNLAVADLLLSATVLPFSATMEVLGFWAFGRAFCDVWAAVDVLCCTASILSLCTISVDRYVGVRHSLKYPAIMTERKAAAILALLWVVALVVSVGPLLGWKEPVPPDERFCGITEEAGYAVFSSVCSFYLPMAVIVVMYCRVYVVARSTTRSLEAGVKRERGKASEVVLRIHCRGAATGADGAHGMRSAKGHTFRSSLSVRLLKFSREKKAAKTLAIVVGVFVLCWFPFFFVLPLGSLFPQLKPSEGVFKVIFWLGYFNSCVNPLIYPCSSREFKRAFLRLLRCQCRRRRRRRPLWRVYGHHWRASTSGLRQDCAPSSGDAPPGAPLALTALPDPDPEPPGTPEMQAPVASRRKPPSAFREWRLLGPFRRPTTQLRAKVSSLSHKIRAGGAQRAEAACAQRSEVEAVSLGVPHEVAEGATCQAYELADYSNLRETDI
Description: Radioligand binding, [3H]prazosin, cloned human α1A adrenergic receptor. The settings on record: pKi alpha-1 1a. Put shortly: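 Competition binding used membrane preparations of transfected LM(tk−) cells and the α1 antagonist [3H]prazosin at 0.5 nM, incubated 20 min at 37° C in Tris-HCl buffer, pH 7.5.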

Setting [4] is: [3H]nitrendipine, rat cardiac muscle membrane fragments, L-type calcium channel, read-out: pKi Ca (converted).
Where [5] appears, read: pKi alpha-2 2c, [3H]rauwolscine, human α2C receptor, LM(tk−) cells.
The mark [6] stands for this setting: [3H]prazosin, cloned human α1A receptor, LM(tk−) cell membranes.
Where [7] appears, read: [3H]rauwolscine, human α2C receptor, LM(tk−) cells, read-out: pKi alpha-2 2c (converted).
Where [8] appears, read: [3H]nitrendipine, rat cardiac muscle membranes, SEM and n in lines below, read-out: pKi Ca (converted).
Where [9] appears, read: [3H]rauwolscine, LM(tk-) cell line L-α2C, SEM and n in lines below, read-out: pKi alpha-2 2c (converted).
Setting [10] is: [3H]prazosin, cloned human receptor in LM(tk-) cell membranes, SEM and n in lines below.

T1 sequence (P22002 whole entry, other chains not shown, the tested form may be a part): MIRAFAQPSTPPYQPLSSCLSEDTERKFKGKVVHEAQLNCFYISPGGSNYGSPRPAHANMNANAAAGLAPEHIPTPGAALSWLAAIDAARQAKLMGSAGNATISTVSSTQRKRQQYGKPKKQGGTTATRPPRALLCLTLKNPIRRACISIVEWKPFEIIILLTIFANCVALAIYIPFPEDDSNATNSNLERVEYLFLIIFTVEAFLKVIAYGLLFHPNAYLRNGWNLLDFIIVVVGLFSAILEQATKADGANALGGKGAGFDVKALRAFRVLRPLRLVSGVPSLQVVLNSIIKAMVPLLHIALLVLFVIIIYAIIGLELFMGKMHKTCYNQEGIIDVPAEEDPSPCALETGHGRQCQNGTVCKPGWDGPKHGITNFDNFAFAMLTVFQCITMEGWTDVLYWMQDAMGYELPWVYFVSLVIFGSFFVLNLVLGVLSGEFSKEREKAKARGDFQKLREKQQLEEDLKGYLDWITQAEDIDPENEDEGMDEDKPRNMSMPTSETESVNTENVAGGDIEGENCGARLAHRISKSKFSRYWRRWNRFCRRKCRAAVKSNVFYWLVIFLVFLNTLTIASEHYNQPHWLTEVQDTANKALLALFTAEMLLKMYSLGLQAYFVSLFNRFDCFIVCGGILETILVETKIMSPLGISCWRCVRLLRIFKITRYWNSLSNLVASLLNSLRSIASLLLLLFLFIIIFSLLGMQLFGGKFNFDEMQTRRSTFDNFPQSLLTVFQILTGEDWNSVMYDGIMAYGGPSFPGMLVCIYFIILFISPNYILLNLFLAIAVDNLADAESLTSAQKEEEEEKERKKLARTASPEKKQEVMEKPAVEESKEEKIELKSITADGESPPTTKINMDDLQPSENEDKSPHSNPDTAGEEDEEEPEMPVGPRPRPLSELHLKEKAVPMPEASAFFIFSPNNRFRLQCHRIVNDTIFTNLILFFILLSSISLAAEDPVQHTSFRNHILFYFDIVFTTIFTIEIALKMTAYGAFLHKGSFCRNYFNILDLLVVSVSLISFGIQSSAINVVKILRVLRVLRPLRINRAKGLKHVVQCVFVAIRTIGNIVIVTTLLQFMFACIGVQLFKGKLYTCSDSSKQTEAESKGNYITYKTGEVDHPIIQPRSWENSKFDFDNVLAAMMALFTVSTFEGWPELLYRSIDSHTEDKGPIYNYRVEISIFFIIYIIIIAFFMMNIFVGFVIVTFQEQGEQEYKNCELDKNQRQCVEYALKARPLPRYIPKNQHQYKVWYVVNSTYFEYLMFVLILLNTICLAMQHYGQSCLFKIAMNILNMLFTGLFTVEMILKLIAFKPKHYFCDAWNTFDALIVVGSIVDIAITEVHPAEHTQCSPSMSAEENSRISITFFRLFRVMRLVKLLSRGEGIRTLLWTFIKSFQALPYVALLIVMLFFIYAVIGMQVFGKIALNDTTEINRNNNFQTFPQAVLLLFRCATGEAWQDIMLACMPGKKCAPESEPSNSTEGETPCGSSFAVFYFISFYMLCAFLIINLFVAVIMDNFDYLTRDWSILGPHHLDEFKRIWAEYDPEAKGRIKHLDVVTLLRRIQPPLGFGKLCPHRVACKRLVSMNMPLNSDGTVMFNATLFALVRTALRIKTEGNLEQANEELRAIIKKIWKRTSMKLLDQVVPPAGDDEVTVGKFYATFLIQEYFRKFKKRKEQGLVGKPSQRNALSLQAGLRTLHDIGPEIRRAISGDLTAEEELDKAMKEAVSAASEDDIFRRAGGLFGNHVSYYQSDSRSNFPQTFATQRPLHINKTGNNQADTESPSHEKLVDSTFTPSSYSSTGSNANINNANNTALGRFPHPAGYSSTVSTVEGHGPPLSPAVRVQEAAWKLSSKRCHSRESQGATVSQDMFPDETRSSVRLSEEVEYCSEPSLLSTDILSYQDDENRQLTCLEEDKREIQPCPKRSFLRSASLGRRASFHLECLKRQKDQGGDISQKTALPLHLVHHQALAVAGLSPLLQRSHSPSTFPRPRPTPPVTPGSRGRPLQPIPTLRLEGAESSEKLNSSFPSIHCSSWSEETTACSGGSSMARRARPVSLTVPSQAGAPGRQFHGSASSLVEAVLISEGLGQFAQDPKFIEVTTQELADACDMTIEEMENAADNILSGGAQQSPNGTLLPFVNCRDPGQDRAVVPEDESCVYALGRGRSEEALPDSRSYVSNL
T1 sequence (P54290 25-944 partner limits assumed, other chains not shown): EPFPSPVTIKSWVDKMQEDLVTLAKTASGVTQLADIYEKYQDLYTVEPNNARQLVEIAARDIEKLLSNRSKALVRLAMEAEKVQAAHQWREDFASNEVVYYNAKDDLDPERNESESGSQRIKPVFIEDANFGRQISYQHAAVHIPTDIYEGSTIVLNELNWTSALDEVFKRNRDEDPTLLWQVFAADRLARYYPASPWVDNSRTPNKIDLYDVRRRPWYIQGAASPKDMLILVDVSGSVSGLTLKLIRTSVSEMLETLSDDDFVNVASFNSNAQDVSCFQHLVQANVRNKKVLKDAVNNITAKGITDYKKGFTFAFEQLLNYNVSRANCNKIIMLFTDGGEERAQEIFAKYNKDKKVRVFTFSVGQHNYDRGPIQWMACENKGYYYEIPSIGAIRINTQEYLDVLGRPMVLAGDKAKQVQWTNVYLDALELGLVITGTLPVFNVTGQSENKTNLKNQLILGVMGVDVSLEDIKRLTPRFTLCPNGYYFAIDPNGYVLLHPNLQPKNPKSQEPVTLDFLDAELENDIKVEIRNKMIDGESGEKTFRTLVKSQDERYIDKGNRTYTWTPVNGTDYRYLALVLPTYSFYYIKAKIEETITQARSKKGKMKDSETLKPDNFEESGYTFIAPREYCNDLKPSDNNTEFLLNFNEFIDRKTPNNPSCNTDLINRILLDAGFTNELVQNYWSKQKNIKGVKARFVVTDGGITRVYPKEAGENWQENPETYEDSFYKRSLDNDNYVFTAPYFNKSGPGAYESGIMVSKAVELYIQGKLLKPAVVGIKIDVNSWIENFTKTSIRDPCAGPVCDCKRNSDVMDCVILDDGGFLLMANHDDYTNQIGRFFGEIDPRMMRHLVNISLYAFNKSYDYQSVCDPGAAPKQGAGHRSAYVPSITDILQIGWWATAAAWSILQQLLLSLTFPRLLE
T1 sequence (P54290 945-1091 partner limits assumed, other chains not shown): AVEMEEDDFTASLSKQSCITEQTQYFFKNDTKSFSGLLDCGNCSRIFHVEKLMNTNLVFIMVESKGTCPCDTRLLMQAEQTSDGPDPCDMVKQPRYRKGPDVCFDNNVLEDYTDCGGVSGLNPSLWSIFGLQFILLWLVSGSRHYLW

As to `CCC1=C(C(N)=O)C(c2ccc([N+](=O)[O-])cc2)C(C(=O)NCCCN2CCC(c3ccc(OC)cc3)(c3ccc(OC)cc3)CC2)=C(CC)N1` (stereo not drawn) [Example 103, 5-Carboxamido-2,6-diethyl-1,4-dihydro-3-{N-[3-(4,4-bis-(4-methoxyphenyl)piperidin-1-yl)propyl]}carboxamido}-4-(4-nitrophenyl)pyridine hydrochloride], the Ki is 0.178 µM in assay [1] (pKi Ca), 0.269 µM in assay [2] (pKi alpha-2 2c) and 2.51 µM in assay [3].

For the molecule `CCC1=C(C(N)=O)C(c2ccc([N+](=O)[O-])cc2)C(C(=O)NCCCN2CCC3(CC2)C(=O)NCN3c2ccccc2)=C(CC)N1` (stereo not drawn) [Example 105, 5-Carboxamido-2,6-diethyl-1,4-dihydro-4-(4-nitrophenyl)-3-{N-[3-(1-phenyl-4-oxo-1,3,8-triazaspiro[4.3]decan-8-yl)propyl]}carboxamidopyridine hydrochloride hydrate], the values for the Ki in assay [1] (pKi Ca), in assay [2] (pKi alpha-2 2c) and in assay [3] were 6.61 µM, 1.38 µM and 2.45 µM, respectively.

With `CCC1=C(C(N)=O)C(c2ccc(S(C)(=O)=O)cc2)C(C(=O)NCCCN2CCC(c3ccccc3)(c3ccccc3)CC2)=C(C)N1` (stereo not drawn) [Example 118, 3-Carboxamido-2-ethyl-1,4-dihydro-4-(4-methanesulfonylphenyl)-6-methyl-3-(N-(3-(4,4-diphenylpiperidin-1-yl)propyl)carboxyamido)-pyridine], the Ki in assay [1] (setting [4]) was 1000 µM; in assay [2] (setting [5]), 2.24 µM; in assay [3] (setting [6]), 2.19 µM.

As for `COC(=O)C1=C(C)N(C)C(C)=C(C(=O)OCCCN2CCC(c3ccccc3)(c3ccccc3)CC2)C1c1ccc([N+](=O)[O-])cc1` (stereo not drawn) [Example 92, 1,4-Dihydro-5-methoxycarbonyl-1,2,6-trimethyl-4-(4-nitrophenyl)-3-[3-(4,4-diphenylpiperidin-1-yl)propoxy]carbonylpyridine hydrochloride hydrate], the Ki is 4.17 µM in assay [1] (pKi Ca), 0.759 µM in assay [2] (pKi alpha-2 2c) and 0.209 µM in assay [3].

Regarding `COC(=O)C1=C(C)NC(C)=C(C(=O)NCCCN2CCC(c3ccccc3)(c3ccccc3)CC2)C1c1ccc(C#N)cc1` (stereo not drawn) [Example 12, 4-(4-Cyanophenyl)-1,4-dihydro-3-methoxycarbonyl-2,6-dimethyl-5-(N-(3-(4,4-diphenylpiperidin-1-yl)propyl)carboxamido)pyridine], the results for the Ki in assay [1] (pKi Ca), in assay [2] (pKi alpha-2 2c) and in assay [3] were 3.8 µM, 0.871 µM and 0.38 µM, respectively.

On to `COc1ccc(C2(c3ccccc3)CCN(CCCNC(=O)C3=C(C)NC(C)=C(C(N)=O)C3c3ccc([N+](=O)[O-])cc3)CC2)cc1` (stereo not drawn) [Example 98, 5-Carboxamido-1,4-dihydro-3-{N-[3-(4-(4-methoxyphenyl)-4-phenylpiperidin-1-yl)propyl]}carboxamido-2,6-dimethyl-4-(4-nitrophenyl)pyridine hydrochloride], for which the Ki in assay [1] (setting [4]) is 1000 µM; in assay [2] (setting [7]) it was 0.427 µM; in assay [3] (setting [6]), 1.1 µM.

On to `COC(=O)C1=C(C)NC(C)=C(C(=O)NCCCN2CCC(c3ccccc3)(c3ccccc3)CC2)C1c1cc(OC)c(OC)c(OC)c1` (stereo not drawn) [Example 27], for which the Ki in assay [1] (pKi Ca) is 0.589 µM; in assay [2] (pKi alpha-2 2c), 1.2 µM; in assay [3], 0.38 µM.

As to `COC(=O)C1=C(C)NC(C)=C(C(=O)NCCCN2CCC(c3ccccc3)(c3ccccc3)CC2)C1Cc1ccccc1` (stereo not drawn) [Example 8, 4-Benzyl-1,4-dihydro-3-methoxycarbonyl-2,6-dimethyl-5-(N-(3-(4,4-diphenylpiperidin-1-yl)propyl)carboxamido)pyridine], the Ki was 11.5 µM in assay [1] (setting [8]), 0.339 µM in assay [2] (setting [9]) and 0.38 µM in assay [3] (setting [10]).

On to `CC1=C(C(N)=O)C(c2ccc([N+](=O)[O-])cc2)C(C(=O)NCCN2CCC(c3ccccc3)(c3ccccc3)CC2)=C(C)N1` (stereo not drawn) [Example 54, 5-Carboxamide-1,4-dihydro-2,6-dimethyl-4-(4-nitrophenyl)-3-{N-[2-(4,4-diphenylpiperidin-1-yl)ethyl]}carboxamidopyridine hydrochloride hydrate], for which the results for the Ki in assay [1] (setting [8]), in assay [2] (setting [9]) and in assay [3] (setting [10]) were 58.9 µM, 0.158 µM and 0.347 µM, respectively.

For `CCC1=C(C(N)=O)C(c2ccc([N+](=O)[O-])cc2)C(C(=O)NCCCN2CCC(C#N)(c3ccccc3)CC2)=C(CC)N1` (single isomer, unassigned; (-)) [(−)-102], the figures for the Ki in assay [1] (setting [4]), in assay [2] (setting [5]) and in assay [3] (setting [6]) were 0.55 µM, 1.05 µM and 6.76 µM, respectively.

Turning to `COC(=O)C1=C(C)NC(C)=C(C(=O)NCCCN2CCC(c3ccccc3)(c3ccccc3)CC2)C1c1ccc2ccccc2c1` (stereo not drawn) [Example 22], the Ki in assay [1] (pKi Ca) is 0.372 µM; in assay [2] (pKi alpha-2 2c) it was 0.631 µM; in assay [3], 0.741 µM.

As to `CC1=C(C(=O)NCCCN2CCC(c3ccccc3)(c3ccccc3)CC2)C(c2ccc([N+](=O)[O-])cc2)C2=C(CCCC2=O)N1` (stereo not drawn) [Example 40, 1,4,5,6,7,8-Hexahydro-2-methyl-4-(4-nitrophenyl)-5-oxo-3-{N-[3-(4,4-diphenylpiperidin-1-yl)propyl]}carboxamidoquinoline], the Ki in assay [1] (setting [8]) was 15.8 µM; in assay [2] (setting [9]), 0.977 µM; in assay [3] (setting [10]) it was 0.55 µM.

As to `CC(C)C1=C(C(N)=O)C(c2ccc([N+](=O)[O-])cc2)C(C(=O)NCCCN2CCC(c3ccccc3)(c3ccccc3)CC2)=C(C(C)C)N1` (stereo not drawn) [Example 127], the results for the Ki in assay [1] (setting [4]) and in assay [3] (setting [6]) were 1000 µM and 0.355 µM, respectively. Besides, the “pKi alpha-2 2c” value in assay [2] ([3H]rauwolscine, human α2C receptor, LM(tk−) cells) turned out to be 6.37.

As to `COC(=O)C1=C(C)NC(C)=C(C(=O)NCCCN2CCC(c3ccccc3)(c3ccccc3)CC2)C1c1ccoc1` (stereo not drawn) [Example 23, 4-(3-Furyl)-1,4-dihydro-3-methoxycarbonyl-2,6-dimethyl-5-(N-(3-(4,4-diphenylpiperidin-1-yl)propyl)carboxamide)pyridine], the Ki in assay [1] (setting [8]) is 0.288 µM; in assay [2] (setting [9]), 0.468 µM; in assay [3] (setting [10]), 0.646 µM.

With `CC1=C(C#N)C(c2ccc([N+](=O)[O-])cc2)C(C(=O)NCCCN2CCC(c3ccccc3)(c3ccccc3)CC2)=C(C)N1` (stereo not drawn) [Example 37], the Ki was 1.35 µM in assay [1] (pKi Ca), 0.575 µM in assay [2] (pKi alpha-2 2c) and 0.692 µM in assay [3].

In the case of `CCC1=C(C(=O)NCCCN2CCC(c3ccccc3)(c3ccccc3)CC2)C(c2cccc(OC)c2)C(C(N)=O)=C(C)N1` (stereo not drawn) [Example 113, 5-Carboxamide-2-ethyl-1,4-dihydro-4-(3-methoxyphenyl)-6-methyl-3-(N-(3-(4,4-diphenylpiperidin-1-yl)propyl)carboxamido)-pyridine], the figures for the Ki in assay [1] (setting [4]), in assay [2] (setting [5]) and in assay [3] (setting [6]) were 1000 µM, 0.316 µM and 0.692 µM, respectively.

With `CC1=C(C(N)=O)C(c2ccc(S(C)(=O)=O)cc2)C(C(=O)NCCCN2CCC(c3ccccc3)(c3ccccc3)CC2)=C(C)N1` (stereo not drawn) [Example 115, 5-Carboxamido-1,4-4-dihydro-4-(4-methanesufonylphenyl)-2,6-dimethyl-3-(N-(3-(4,4-diphenylpiperidin-1-yl)propyl)carboxamido)-pyridine], the Ki in assay [1] (setting [4]) was 1000 µM; in assay [2] (setting [7]) it was 2.29 µM; in assay [3] (setting [6]), 2 µM.

For `COC(=O)C1=C(C)NC(C)=C(C(=O)NCCCN2CCC(c3ccccc3)(c3ccccc3)CC2)C1C1CCCCC1` (stereo not drawn) [Example 6], the Ki in assay [1] (pKi Ca) was 1.58 µM; in assay [2] (pKi alpha-2 2c), 0.24 µM; in assay [3] it was 1.12 µM.

For `COC(=O)C1=C(C)NC(C)=C(C(=O)NCCCN2CCC(c3ccccc3)(c3ccccc3)CC2)C1c1ccc(-c2ccccc2)cc1` (stereo not drawn) [Example 7], the Ki in assay [1] (pKi Ca) was 0.871 µM; in assay [2] (pKi alpha-2 2c) it was 1.23 µM; in assay [3], 1.17 µM.
